Reference: PMC8911579, “(−)-Naringenin 4′,7-dimethyl Ether Isolated from Nardostachys jatamansi Relieves Pain through Inhibition of Multiple Channels” (Molecules, 2022)

How the values were obtained:
sleep = system: sleep; design: method as in PMID 34747100; conditions: extracted from peanut stem and leaf; cited from earlier work
[1] = system: Nav channels and Kv channels in cortical neurons; design: method as in PMID 34747100; conditions: cited from earlier work
TRPA1 channels = target: T1, TRPA1 channels (Homo sapiens, UniProt O75762); experiment: whole-cell patch-clamp, TRPA1 stably expressed in HEK293 cells; type: cell-based
T1 construct: expressed in transfected cells
T1 sequence (O75762 whole entry): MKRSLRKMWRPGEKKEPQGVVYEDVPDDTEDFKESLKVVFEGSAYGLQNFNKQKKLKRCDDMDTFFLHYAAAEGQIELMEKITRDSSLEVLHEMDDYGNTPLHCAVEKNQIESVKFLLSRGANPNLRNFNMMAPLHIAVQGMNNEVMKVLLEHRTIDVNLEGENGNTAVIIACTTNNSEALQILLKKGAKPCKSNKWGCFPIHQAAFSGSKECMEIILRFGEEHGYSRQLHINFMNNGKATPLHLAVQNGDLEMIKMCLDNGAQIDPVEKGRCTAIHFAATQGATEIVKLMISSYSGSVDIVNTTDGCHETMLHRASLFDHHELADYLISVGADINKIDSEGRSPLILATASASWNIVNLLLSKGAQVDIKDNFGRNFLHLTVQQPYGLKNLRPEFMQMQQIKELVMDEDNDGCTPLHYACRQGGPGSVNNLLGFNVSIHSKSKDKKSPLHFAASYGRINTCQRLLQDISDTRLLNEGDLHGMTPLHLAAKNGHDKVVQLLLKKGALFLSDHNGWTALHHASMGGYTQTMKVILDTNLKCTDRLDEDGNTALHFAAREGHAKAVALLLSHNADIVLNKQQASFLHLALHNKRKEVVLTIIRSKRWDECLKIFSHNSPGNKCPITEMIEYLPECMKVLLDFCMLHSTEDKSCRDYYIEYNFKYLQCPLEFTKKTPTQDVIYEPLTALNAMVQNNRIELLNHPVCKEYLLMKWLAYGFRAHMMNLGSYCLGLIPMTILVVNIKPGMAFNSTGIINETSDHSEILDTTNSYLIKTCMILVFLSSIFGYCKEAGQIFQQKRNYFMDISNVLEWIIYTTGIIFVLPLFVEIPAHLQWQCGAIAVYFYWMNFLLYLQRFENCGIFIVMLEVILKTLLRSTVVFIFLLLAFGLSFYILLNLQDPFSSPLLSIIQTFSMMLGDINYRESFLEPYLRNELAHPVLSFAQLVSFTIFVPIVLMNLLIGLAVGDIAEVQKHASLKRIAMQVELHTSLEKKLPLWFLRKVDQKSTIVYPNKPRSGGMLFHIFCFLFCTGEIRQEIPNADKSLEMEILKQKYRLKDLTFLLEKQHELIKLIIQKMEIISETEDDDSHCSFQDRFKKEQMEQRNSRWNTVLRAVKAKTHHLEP

pro-inflammatory factors = system: pro-inflammatory factors; design: method as in PMID 30193010; conditions: compared to other naringenin derivatives; cited from earlier work
opioid receptors = system: opioid receptors; design: method as in PMID 25686780; conditions: radioligand binding; cited from earlier work
[2] = system: endocannabinoid receptors; design: method as in PMID 25686780; conditions: radioligand binding; cited from earlier work
pain = system: pain; design: method as in PMID 30193010; conditions: in vivo; cited from earlier work

COc1ccc([C@@H]2CC(=O)c3c(O)cc(OC)cc3O2)cc1 [NRG-DM]
sleep (sleep): promoted sleep | inhibitory activity on Nav channels versus Kv channels [1]: more potent than that on Kv channels

CC(C)c1ccc(NC(=O)Cn2cnc3c2c(=O)n(C)c(=O)n3C)cc1 [HC030031]
effect on TRPA1 currents (TRPA1 channels; 30 µM, TRPA1 channel inhibitor): inhibited

COc1ccc([C@@H]2CC(=O)c3c(O)cc(OC)cc3O2)cc1 [(+)-NRG-DM, (+)-naringenin 4′,7-dimethyl ether]
production and release of pro-inflammatory factors (pro-inflammatory factors): did not influence the production and release of pro-inflammatory factors | affinity (opioid receptors): does not show affinity | affinity [2]: does not show affinity | analgesic activity (pain): showed analgesic activity

C=CCN=C=S [AITC, allyl isothiocyanate]
effect on TRPA1 currents (TRPA1 channels; 10 µM, TRPA1 channel activator): induced
